Source: PubChem BioAssay AID2305 (GlaxoSmithKline (GSK), 2010)
Values joined by “and” are separate entries in the source; they are usually repeats but may differ in a detail not shown here. Identical values can stand only once.

What follows are compounds tested on P. falciparum 3D7 growth, pLDH absorbance (assay: blood-stage malaria parasite growth potency – strain 3D7, dose response (AID 2305)).

SMILES | IC50
Fc1ccc2nc(-c3cccc(-c4ccc(CN5CCN(c6ccncc6)CC5)cc4)c3)[nH]c2c1 | 210 nM
CCCCCCC(C)c1cc(OCCN(CC)CC)c2c(c1)OC(C)(C)C=C2c1ccncc1 (stereo not given) | 1260 nM
Cc1cnc2ccc(NS(=O)(=O)c3sc4ccc(Cl)cc4c3C)cc2c1N1CCNCC1 | 810 nM
CN(CCN)Cc1cccc(-c2cccc(-c3nc4ccc(F)cc4[nH]3)c2)c1 | 790 nM
COc1c(C2CCN(CCCCNC(=O)c3ccc(-c4ccc(C#N)cc4)cc3)CC2)cc(Cl)c2c1CCCC2 | 780 nM
C=CCCCNCC(NCCCNc1cc(=O)c2ccccc2[nH]1)c1cc(Br)cc(Br)c1 (stereo not given) | 890 nM
Cc1nc(N)nc(N)c1CCCOc1ccc(Br)cc1 | 490 nM
COCCNCc1cccc(-c2cc3nccc(Nc4ccc(Oc5ccccc5)cc4)c3cc2Cl)c1 | 1380 nM
CCOc1ccc(C(=O)Nc2cc3c(c(C(F)(F)F)c2)CCNC3)cc1Cl | 1060 nM
CC(C)c1sc(N2CCCCC2)nc1C(=O)Nc1ccc(F)cc1C(F)(F)F | 240 nM
Cc1cccc2c(/C=C/C(=O)NC3CCC(CCN4CCc5ccc(C#N)cc5CC4)CC3)c[nH]c12 (stereo not given) | 1220 nM
O=C(Nc1ccc(Cl)c(Cl)c1)Nc1ccc2nccc(N3CCNCC3)c2c1 | 260 nM
O=C(NCCCCN1CCC(c2c[nH]c3ccccc23)CC1)c1sc(-c2ccc(C(F)(F)F)cc2)nc1CO | 1200 nM
Cc1ccc(F)c(OCC2CCN(c3ncc(C(=O)NC4CC4)cc3Cl)CC2)c1 | 900 nM
CCCCCN1CCC(NC(=O)c2ccc(C(=O)Nc3ccc(C(C)C)cc3)cc2)C1 (stereo not given) | 950 nM
O=C(NC1CCCCN(Cc2ccccc2O)C1)c1cccc(C(F)(F)F)c1 (stereo not given) | 790 nM
Cn1nc(-c2cccc(CN[C@@H]3CCc4ccc(O)cc43)c2)c2cnc(NC3CCCC3)nc21 | 740 nM
CC(C)CNC(=O)c1cncc(-c2ccc(CN(C)C3CCN(C)CC3)cc2)c1 | 880 nM
Nc1nc(N)c2c(ccc3c2ccn3Cc2ccc(OCc3ccccc3)cc2)n1 | 930 nM
CC(C)(C)c1ccc(CN2CCCCC(NC(=O)c3cc(-c4ccccc4F)cs3)C2)cc1 (stereo not given) | 270 nM
Nc1c2c(nc3ccccc13)C(=Cc1ccc(O)cc1)CCC2 | 180 nM
CC(C)(C)c1ccc(NC(=O)c2cccc(CN3CCCN(Cc4cccc(O)c4)CC3)c2)cc1 | 550 nM
Cc1cnc(C(=O)Nc2cccc(-c3cccc(-c4nc5ccc(F)cc5[nH]4)c3)c2)cn1 | 770 nM
COc1ccc(CN2CCC(NCc3cccc([N+](=O)[O-])c3)CC2)cc1 | 910 nM

SMILES | IC50
Cc1[nH]c2ccccc2c1C1=CCN(CCCCCC23CCCc4cccc(c42)NC3=O)CC1 (stereo not given) | 250 nM
CNC(=O)c1ccccc1Nc1nc(Nc2ccc(C(=O)O)cc2)ncc1Cl | 950 nM
NC(=O)c1cc(-c2ccccc2)cc2c(C3CCC(NCc4ccccc4)C3)c[nH]c12 (stereo not given) | 910 nM
Cc1cccc2[nH]c(-c3cccc(-c4ccc(NC(=O)COC(C)C)cc4)c3)nc12 | 1190 nM
O=C(NC=Nc1cc([N+](=O)[O-])c(-c2ccncc2)n1-c1ccccc1)c1cccc(O)c1 | 330 nM
Oc1cc(Nc2ccnc3cc(I)ccc23)ccc1F | 740 nM
Nc1c2nc(-c3c(F)cccc3Cl)[nH]c(=O)c2nc(=O)n1-c1ccccc1 | 680 nM
Cc1cccc2[nH]c(-c3ccc(-c4ccc(NC(=O)C(C)CN(C)C)cc4)cc3)nc12 (stereo not given) | 680 nM
CN1CCN(c2ccc(Nc3c(C(N)=O)cnc4cc(-c5ccoc5)ccc34)cc2)CC1 | 810 nM
CCCC(=O)Nc1ccc(OCCCN(Cc2ccccc2F)c2ccc(C#N)c(C(F)(F)F)c2)cc1 | 590 nM
CN1CCN(CCCN(Cc2ccc(-c3ccc(CNC4CCCC4)cc3)cc2)C(=O)CCC2CCCC2)CC1 | 890 nM
CCN1CCCC1CN(Cc1ccc(-c2ccc(C(F)(F)F)cc2)cc1)C(=O)Cn1c(CCc2cccc(F)c2F)nc(=O)c2ccccc21 (stereo not given) | 1590 nM
COc1ccc2nccc([C@@H](O)CN3CCC(NCCOc4ccc(F)cc4F)CC3)c2c1 | 140 nM
CC(C)Sc1nc2c(c(=O)n1CCc1ccccc1)C1(CCCC1)Cc1ccccc1-2 | 350 nM
CN(C)CCCOc1ccc(-c2csc(NC(N)=NCc3ccccc3)n2)cc1 | 280 nM
Cc1cc(Nc2ncc3c(n2)N(C2CCC2)CC3)ccc1N1CCN(C)CC1 | 1190 nM
O=C(Nc1ccc2c(c1)CCN2C1CCN(Cc2cccc3cc[nH]c23)C1)c1ccco1 (stereo not given) | 1210 nM
CCOc1cc(C(=O)NCCN2CCCCC2)ccc1-c1nc2ccc(Cl)cc2[nH]1 | 1080 nM
N#Cc1ccc(-c2ccc(C(=O)NCCCCN3CCC(c4nc5ccccc5[nH]4)CC3)cc2)cc1 | 1010 nM
CC1(C)N=C(N)N=C(N)N1OCCCO | 220 nM
COc1ccc(N2CCN(c3nc(N)c4cc(OC)c(OC)cc4n3)CC2C)cc1 (stereo not given) | 1420 nM
COc1cc(CNc2ncc(-c3ccsc3)c(-c3nccs3)n2)cc(OC)c1 | 130 nM
CN1CCC(NCc2cccc(-c3ccc(S(=O)(=O)NCc4ccccc4)c(F)c3)c2)CC1 | 330 nM
COc1ccc(NC(=O)[C@H](Cc2ccccc2)Nc2cc(C)nc(NCCc3cccnc3)n2)cc1 | 760 nM

SMILES | IC50
Cc1c(F)cc(C(=O)NC2CC2)cc1-c1ccc2c(cnn2S(=O)(=O)c2ccc(F)c(F)c2)c1 | 270 nM
CC(=O)Nc1nc(C(=O)Nc2ccc(-c3ccc(-c4nc5ccc(F)cc5[nH]4)cc3)cc2)cs1 | 460 nM
Cc1ccn2c(C(=O)N3CCN(c4cccc5c4nc(-c4ccoc4)n5Cc4ccccn4)CC3)c(C)nc2c1 | 200 nM
Cc1cc(NN=Cc2cccc([N+](=O)[O-])c2)c2ccc(F)cc2n1 | 690 nM
Cc1cc(N2CCCCC2)nc2ccc(NC(=O)c3cccc([N+](=O)[O-])c3)cc12 | 380 nM
Cc1ccc(-c2ccn(Cc3ccc(OCc4ccccc4)cc3)n2)cn1 (tested in a mixture with another compound) | 670 nM
Cc1cc(N[C@@H](Cc2ccccc2)C(=O)Nc2ccccc2)nc(NCCN2CCCC2)n1 | 1810 nM
Cc1ccc(Nc2ccnc(Nc3ccc4c(c3)CS(=O)(=O)C4)n2)cc1O | 720 nM
COc1ccc2nccc([C@@H](O)CN3CCC(NC(=O)C(c4cc5ccccc5o4)N4CCN(C(c5ccccc5)c5ccccc5)CC4)CC3)c2c1 (stereo not given in full) | 150 nM
O=[N+]([O-])c1cccc(CNCC2CCN(CC3CCCCC3)CC2)c1 | 1290 nM
O=C(NCCN1CCOCC1)c1ccc(CNC(=O)c2ccc(O)c(-c3ccc(Cl)c(Cl)c3)c2)cc1 | 930 nM
O=C(c1cc(OC(F)(F)F)ccc1O)N1CCN(c2ccccc2)CC1 | 1050 nM
COCCNCc1ccc(-c2ccc(CN(C(=O)Nc3ccccc3)C3CCN(Cc4ccccc4)CC3)cc2)cc1 | 750 nM
Cc1[nH]c(C)c(-c2ccc(C#Cc3ccc(F)cc3F)cc2)c(=O)c1Br | 30 nM
O=C(Nc1ccc(N2CCN(Cc3ccccc3)CC2)cc1)c1cccs1 | 770 nM
COc1nc2c(CCN3CC[C@@H](NCc4cc(C#N)c5c(c4)CCO5)[C@@H](O)C3)ccnc2cc1F | 1030 nM
O=C(c1csc(-c2cccnc2)n1)N1CCc2cc3nccc(N4CCN5CCC[C@H]5C4)c3cc21 | 700 nM
COc1cc(-c2cc(-c3ccc(OCCN(C)C)cc3)[nH]c2-c2ccncc2)ccc1Cl | 710 nM
c1cc(-c2ccc(CNCCCN3CCOCC3)cc2)cc(-c2nc3ccccc3[nH]2)c1 | 210 nM
Cc1nc(-c2ccccc2)nc(N2CCN(C(=O)c3ccco3)CC2)c1Cc1ccccc1F | 930 nM
Oc1ccc2[nH]c(-c3ccc(OC(F)(F)F)cc3)nc2c1CNC1CCCC1 | 1750 nM
CC(C)(C)c1ccc(NC(=O)Nc2ccc(Cn3ncc(N4CCCNCC4)c(Cl)c3=O)cc2)cc1 | 750 nM
CN1CCN(c2ccnc3ccc(NC(=O)Nc4ccc(-c5ccccc5)cc4)cc23)CC1 | 780 nM
CC(C)c1ccc(Cn2cc(-c3ccncc3)c3cc(OCc4ccccc4)ccc32)cc1 | 710 nM

SMILES | IC50
CC(C)N(Cc1ccc(-c2ccc(C(F)(F)F)cc2)cc1)C(=O)Cn1c(CCc2cccc(F)c2F)cc(=O)c2ccc(CCCN3CCCCC3)cc21 | 740 nM
CC(C)N1CCC(N(Cc2ccc(-c3ccc(C(F)(F)F)cc3)cc2)C(=O)Cn2c(CCc3cccc(F)c3F)cc(=O)c3ccccc32)CC1 | 850 nM
CCc1ccc(NC(=O)c2cccc(CN3CCCN(Cc4cccc(O)c4)CC3)c2)cc1 | 890 nM
Cc1nc(-c2ccc(-c3ccc(C(=O)Nc4ccc(-n5ccnc5)c(N5CCN(C)CC5)c4)cc3)c(C)c2)no1 | 830 nM
CCCCCC(C)C(C)c1cc(OC(N)=O)c2c(c1)OC(C)(C)C=C2c1ccncc1 (stereo not given) | 900 nM
Cc1cc(-c2ccc3c(c2)CCN(CCC2CCC(NC(=O)/C=C/c4ccc(F)cc4)CC2)CC3)on1 (stereo not given) | 720 nM
Cn1ncc2c3c(CCN4CCC(NCc5ccc6c(c5)NC(=O)CO6)CC4)c(Cl)cnc3ccc21 | 490 nM
Cc1cc(N[C@@H](CC(C)C)C(=O)NC2CCCC2)nc(NCc2ccccc2C)n1 | 1340 nM
COC(=O)c1cccc(CNCc2ccc(-c3ccc(-c4nc5ccc(C(F)(F)F)cc5[nH]4)cc3)cc2)c1 | 300 nM
CC(C)[C@H]1CC[C@H](C)C[C@@H]1OC(=O)N[C@@H](Cc1ccc(O)cc1)C(=O)NC1CCN(Cc2ccc(OCCCN(C)C)cc2)C1 (stereo not given in full) | 760 nM
O=S(=O)(Nc1ccc2nccc(N3CCNCC3)c2c1)c1ccc2oc3ccccc3c2c1 | 690 nM
ON=C1CCc2cc(-c3nc(-c4ccc(OCCN5CCCCC5)cc4)[nH]c3-c3ccncc3)ccc21 | 800 nM
Cc1cc(C)cc(OCC(O)CN(Cc2cc(Cl)cc(Cl)c2)C(=O)Nc2ccccc2Cl)c1 (stereo not given) | 940 nM
NC1=NC(c2ccccc2)(c2ccccn2)C(=O)N1CCCc1ccccc1 (stereo not given) | 1040 nM
O=C(Nc1cccc(-c2ccc(-c3nc4ccc(F)cc4[nH]3)cc2)c1)c1cccnc1 | 610 nM
O=C(/C=C/c1ccc(Cl)c(Cl)c1)NC1CCC(CN2CCC(c3c[nH]c4cc(C(F)(F)F)ccc34)CC2)CC1 (stereo not given) | 900 nM and 280 nM
CCOc1ccc2nc3cc(N)ccc3c(N)c2c1 | 530 nM
CCc1ccc(C2CCN(CCCCNC(=O)c3ccc(NC(=O)c4ccc(Cl)cc4)cc3)CC2)c(OC(C)=O)c1 | 150 nM
NC(=O)c1cccc(C(=O)Nc2cccc(-c3cccc(-c4nc5ccccc5[nH]4)c3)c2)c1 | 550 nM
O=C(CCC1CCCC1)N(Cc1ccc(-c2ccc(CNCCc3ccccc3)cc2)cc1)C1CCCNC1 (stereo not given) | 1220 nM
CCN(CC)CCN(Cc1ccc(-c2ccc(C(F)(F)F)cc2)cc1)C(=O)Cn1c(CCc2cccc(F)c2F)nc(=O)c2cc(C)ccc21 | 940 nM
CS(=O)(=O)c1ccc(Nc2ncc(-c3ccc(S(C)(=O)=O)cc3)c(OCC(F)(F)F)n2)cc1 | 400 nM
O=C(Nc1cccc(F)c1)NC1CCN(c2ccnc3cc(Cl)ccc23)C1 (stereo not given) | 190 nM
